Strand notation (5' to 3'): a small letter for the sugar, then the base; units joined by * are phosphorothioate-linked, units joined directly phosphodiester-linked; [ ] holds rarer units or linkages, { } end groups; capitals alone tell only the bases. d = 2'-deoxy (DNA)
Tested on: MCT4
Test: Percent inhibition of MCT4 by MCT4 ASOs (knock-down after transfection, qPCR/Western blot)
Type: cell-based, human
Procedure: First-generation phosphorothioate-modified ASOs against human MCT4 were rationally designed by selecting sequences containing favourable motifs while excluding unfavourable ones (Matveeva et al., 2000). Specificity of MCT4-targeting sequences, compared to human and mouse genes (at least 3 of 20 bases mismatched), was evaluated using BLAST. Ten sequences SEQ ID No: 1, 4, 5, 9, 11, 30, 36, 37, 40 and 41 (see TABLE A) distributed throughout the length of the transcript with perfect complementarity to all human MCT4 transcript variants (NM_001042422.2, NM_001042423.2, NM_001206950.1, NM_001206951.1, NM_001206952.1, and NM_004207.3) were selected and synthesized by Eurofins MWG Operon. The knock-down efficiencies of these ten ASOs were tested by determining target mRNA and protein expression 48 hours after transfection of cells using qPCR and Western blotting. Two candidate ASOs (#1 and #14—SEQ ID NOs: 1 and 5, respectively) were selected for further studies. Sequences: ASO #1 (SEQ ID NO: 1), 5′-[…]-3′; ASO #14 (SEQ ID NO: 5), 5′-[…]-3′; a published non-targeting control ASO, 5′-[…]-3′ (Mullick et al., 2011; Samuel et al., 2006).
Cells were transfected in 6-well plates with ASOs at 100 nM for 48 hours (unless otherwise indicated) using Oligofectamine™ (Invitrogen™, Carlsbad, Calif.) or with MCT4-targeting siRNAs and controls (Dharmacon™, Chicago, Ill.) at 50 nM for 48 hours using Lipofectamine™ 2000 (Invitrogen™), following the manufacturer's instructions.
Total RNA was isolated using the RNeasy Mini Kit™ (Qiagen Inc.™, Hilden, Germany) and cDNA synthesized using the QuantiTect Reverse Transcription Kit™ (Qiagen™). Primers were designed using Primer-BLAST™. qRT-PCR reactions using KAPA SYBR Fast Universal™ (Kapa Biosystems™, Woburn, Mass.) were performed in triplicate in a ViiA 7 Real-Time PCR™ system (Applied Biosystems™, Foster City, Calif.). Target genes were normalized to a geometric average of 3 internal reference genes (Vandesompele et al., 2002).
Cells were harvested and lysed in RIPA buffer (50 mM Tris-Cl pH 7.4, 150 mM NaCl, 1% Igepal, 0.5% Na-deoxycholate, 0.1% SDS) supplemented with a complete protease inhibitor cocktail (Roche, Nutley, N.J.). The protein concentration of the lysate was determined by Pierce BCA Protein Assay™ (Thermo Scientific™, Waltham, Mass.). The lysate was run on 8% SDS polyacrylamide gel (20 ug of protein per lane) and proteins were transferred onto PVDF membrane (Millipore™, Billerica, Mass.). The blot was blocked with the Odyssey™ blocking buffer (Li-cor Biosciences™) and probed with anti-MCT4 antibody. Vinculin was used as a loading control. Following overnight incubation at 4° C., the primary antibody was probed with the corresponding secondary antibody and detected using the Odyssey Infrared Imaging System™ (Li-cor Biosciences™) and Image Studio Version 3.1™ (Li-cor Biosciences™). Densitometry analysis was done using ImageJ (U.S. National Institutes of Health, Bethesda, Md.).

[1] = Table A, ASOs transfected at 100 nM for 48 hours unless otherwise indicated

| Substance | % MCT4 Inhibition [1] [%] | % MCT4 Inhibition (Table B, SEQ ID NO 1 and 16 mer truncations) [%] |
| --- | --- | --- |
| 1 (TCCCATGGCCAGGAGGGTTG; antisense; DNA, all phosphorothioate, methylation of C not given here; listed as Homo sapiens) [compound 1] | 65.52 | 65.52 |
| 2 (GTCCCGGAAGACGCTCAGGT; antisense; DNA, all phosphorothioate, methylation of C not given here; listed as Homo sapiens) [compound 2] | 86.33 |  |
| 3 (AAGGACGCAGCCACCATGCC; antisense; DNA, all phosphorothioate, methylation of C not given here; listed as Homo sapiens) [compound 3] | 71.19 |  |
| 4 (TTGGCGTAGCTCACCACGAA; antisense; DNA, all phosphorothioate, methylation of C not given here; listed as Homo sapiens) [compound 4] | 77.13 |  |
| 5 (AGATGCAGAAGACCACGAGG; antisense; DNA, all phosphorothioate, methylation of C not given here; listed as Homo sapiens) [compound 5] | 78.16 |  |
| 6 (CCACTCTGGAATGACACGGT; antisense; DNA, all phosphorothioate, methylation of C not given here; listed as Homo sapiens) [compound 6] | 78.67 |  |
| 7 (GTAGGAGAAGCCAGTGATGAC; antisense; DNA, all phosphorothioate, methylation of C not given here; listed as Homo sapiens) [compound 7] | 66.31 |  |
| 8 (AGCATGGCCAGCAGGATGGA; antisense; DNA, all phosphorothioate, methylation of C not given here; listed as Homo sapiens) [compound 8] | 80.77 |  |
| 9 (GGCTGGAAGTTGAGTGCCAA; antisense; DNA, all phosphorothioate, methylation of C not given here; listed as Homo sapiens) [compound 9] | 76.03 |  |
| 10 (CATGCCGTAGGAGATGCCAA; antisense; DNA, all phosphorothioate, methylation of C not given here; listed as Homo sapiens) [compound 10] | 76.51 |  |
| 11 (CTCAGGCTGTGGCTCTTTGG; antisense; DNA, all phosphorothioate, methylation of C not given here; listed as Homo sapiens) [compound 11] | 63.01 |  |
| 12 (TAGCGGTTCAGCATGATGA; antisense; DNA, all phosphorothioate, methylation of C not given here; listed as Homo sapiens) [compound 12] | 70.36 |  |
| 13 (AGCACGGCCCAGCCCCAGCC; antisense; DNA, all phosphorothioate, methylation of C not given here; listed as Homo sapiens) [compound 13] | 66.85 |  |
| 14 (GAGCTCCTTGAAGAAGACACT; antisense; DNA, all phosphorothioate, methylation of C not given here; listed as Homo sapiens) [compound 14] | 72.00 |  |
| 15 (dC*dA*dG*dG*dA*dT*dG*dG*dA*dG*dG*dA*dG*dA*dT*dC*dC*dA*dG*dG; antisense; listed as Homo sapiens) [compound 15] | 75.58 |  |
| 16 (dA*dG*dA*dC*dC*dC*dC*dC*dC*dA*dC*dA*dA*dG*dC*dA*dT*dG*dA*dC; antisense; listed as Homo sapiens) [compound 16] | 55.47 |  |
| 17 (dG*dA*dA*dG*dT*dT*dG*dA*dG*dT*dG*dC*dC*dA*dA*dA*dC*dC*dC*dA*dA; antisense; listed as Homo sapiens) [compound 17] | 70.93 |  |

| Substance | % MCT4 Inhibition [1] [%] | % MCT4 Inhibition (Table B, SEQ ID NO 1 and 16 mer truncations) [%] |
| --- | --- | --- |
| 18 (dC*dC*dC*dG*dT*dT*dG*dG*dC*dC*dA*dT*dG*dG*dG*dG*dC*dG*dC*dC; antisense; listed as Homo sapiens) [compound 18] | 71.14 |  |
| 19 (dG*dC*dC*dA*dG*dC*dC*dC*dG*dT*dT*dG*dG*dC*dC*dA*dT*dG*dG*dG; antisense; listed as Homo sapiens) [compound 19] | 80.26 |  |
| 20 (dA*dG*dG*dA*dA*dG*dA*dC*dA*dG*dG*dG*dC*dT*dA*dC*dC*dT*dG*dC; antisense; listed as Homo sapiens) [compound 20] | 66.26 |  |
| 21 (dG*dC*dA*dC*dA*dC*dA*dG*dG*dA*dA*dG*dA*dC*dA*dG*dG*dG*dC*dT; antisense; listed as Homo sapiens) [compound 21] | 60.36 |  |
| 22 (dC*dA*dG*dG*dG*dC*dA*dC*dA*dC*dA*dG*dG*dA*dA*dG*dA*dC*dA*dG; antisense; listed as Homo sapiens) [compound 22] | 79.96 |  |
| 23 (dC*dA*dG*dC*dA*dG*dT*dT*dG*dA*dG*dC*dA*dG*dC*dA*dG*dG*dC*dC; antisense; listed as Homo sapiens) [compound 23] | 65.41 |  |
| 24 (dG*dA*dC*dC*dT*dG*dT*dC*dC*dC*dG*dT*dA*dG*dA*dG*dC*dA*dT*dG; antisense; listed as Homo sapiens) [compound 24] | 47.24 |  |
| 25 (dT*dT*dC*dC*dC*dA*dA*dG*dC*dC*dC*dC*dG*dC*dC*dA*dC*dG*dA*dA; antisense; listed as Homo sapiens) [compound 25] | 22.88 |  |
| 26 (dA*dA*dT*dG*dC*dT*dC*dC*dA*dC*dC*dT*dC*dC*dC*dG*dC*dA*dA*dG; antisense; listed as Homo sapiens) [compound 26] | 9.55 |  |
| 27 (dA*dC*dC*dT*dC*dC*dC*dC*dG*dT*dT*dT*dT*dT*dC*dT*dC*dA*dG*dG; antisense; listed as Homo sapiens) [compound 27] | 3.17 |  |
| 28 (dT*dG*dT*dG*dA*dA*dC*dC*dA*dC*dC*dT*dC*dC*dC*dC*dG*dT*dT*dT; antisense; listed as Homo sapiens) [compound 28] | 29.91 |  |
| 29 (dT*dC*dT*dG*dT*dA*dC*dC*dT*dC*dC*dT*dC*dC*dC*dT*dG*dT*dG*dC; antisense; listed as Homo sapiens) [compound 29] | 16.31 |  |
| 30 (dG*dA*dA*dT*dG*dA*dC*dA*dC*dG*dG*dT*dT*dC*dC*dC*dA*dC*dC*dC; antisense; listed as Homo sapiens) [compound 30] | 25.51 |  |
| 31 (dG*dC*dC*dC*dA*dC*dC*dC*dA*dC*dC*dC*dT*dC*dC*dC*dA*dT*dT*dA; antisense; listed as Homo sapiens) [compound 31] | -43.4 |  |
| 32 (dA*dA*dG*dA*dG*dA*dC*dC*dC*dC*dC*dC*dA*dC*dA*dA*dG*dC*dA*dT; antisense; listed as Homo sapiens) [compound 32] | 18.67 |  |
| 33 (dC*dC*dC*dA*dC*dC*dA*dT*dG*dC*dC*dG*dT*dA*dG*dG*dA*dG*dA*dT; antisense; listed as Homo sapiens) [compound 33] | 49.00 |  |
| 34 (dA*dG*dT*dC*dC*dA*dC*dC*dC*dC*dC*dG*dA*dG*dT*dC*dT*dG*dC*dA; antisense; listed as Homo sapiens) [compound 34] | 20.5 |  |

Source: patent US11466273B2, “Monocarboxylate transporter 4 (MCT4) antisense oligonucleotide (ASO) inhibitors for use as therapeutics in the treatment of cancer” (THE UNIVERSITY OF BRITISH COLUMBIA, priority 2015, dated 2022)
